Measurements: publication PMC13619035 (British Journal of Clinical Pharmacology, 2026)

Experiment: Single-dose pharmacokinetic study in healthy volunteers, plasma concentrations by LC-MS/MS
Format: in vivo, human
Conditions: single oral dose of 20 mg pantoprazole or 10 mg omeprazole, 20 healthy volunteers, fasted
Protocol: An open label, randomized, single‐dose pharmacokinetic study in healthy volunteers was conducted in cross‐over design.
The subjects presented to the study facilities fasted in the morning. Three hours after drug intake the subjects received a meal on both study days. […] Venous blood samples (7 mL each) were drawn into EDTA‐containing tubes. Blood samples were centrifuged immediately after blood sampling for 10 min at 2000g to generate blood plasma. Blood plasma was aliquoted and stored at −32 °C until analysis.
Probe drugs and metabolite concentrations were determined using a liquid‐chromatography tandem mass spectrometer (LC–MS/MS) system consisting of an Agilent 1290 Infinity II UHPLC coupled to a Sciex QTRAP6500 + triple quadrupole mass spectrometer.
The total chromatographic method length was increased from 8.5 to 8.8 min. […] Samples were vortexed for 10 s and centrifuged for 20 min at 17.000 x g and 4 °C. A total of 40 μl supernatant were diluted with 40 μl LC grade water, vortexed briefly and centrifuged again for 5 min at 17.000 x g and 4 °C.
The samples were vortexed for 10 s and centrifuged for 20 min at 4 °C and 17.000 x g. […]
The AUC0‐8h metabolic ratios (MR) were calculated as follows: AUC0‐8h MR = AUC0‐8h, metabolite/AUC0‐8h, substrate. […] Statistical significance was assessed using non‐parametric Kruskal‐Wallis test with Dunn's post hoc test. […]

- tmax: 2 h
SMILES: COc1ccnc(C[S+]([O-])c2nc3ccc(OC(F)F)cc3[nH]2)c1OC (stereo not shown) [pantoprazole]
